In ChEMBL document CHEMBL1255549 (Bioorg Med Chem Lett, 2010):

Molecular target: Maltase-glucoamylase (Homo sapiens, UniProt O43451)
Experiment: Inhibition of human recombinant N-terminal domain of maltase-glucoamylase after 60 mins by glucose oxidase assay

Maltase-glucoamylase, sequence (O43451 whole entry, the tested form may be a part): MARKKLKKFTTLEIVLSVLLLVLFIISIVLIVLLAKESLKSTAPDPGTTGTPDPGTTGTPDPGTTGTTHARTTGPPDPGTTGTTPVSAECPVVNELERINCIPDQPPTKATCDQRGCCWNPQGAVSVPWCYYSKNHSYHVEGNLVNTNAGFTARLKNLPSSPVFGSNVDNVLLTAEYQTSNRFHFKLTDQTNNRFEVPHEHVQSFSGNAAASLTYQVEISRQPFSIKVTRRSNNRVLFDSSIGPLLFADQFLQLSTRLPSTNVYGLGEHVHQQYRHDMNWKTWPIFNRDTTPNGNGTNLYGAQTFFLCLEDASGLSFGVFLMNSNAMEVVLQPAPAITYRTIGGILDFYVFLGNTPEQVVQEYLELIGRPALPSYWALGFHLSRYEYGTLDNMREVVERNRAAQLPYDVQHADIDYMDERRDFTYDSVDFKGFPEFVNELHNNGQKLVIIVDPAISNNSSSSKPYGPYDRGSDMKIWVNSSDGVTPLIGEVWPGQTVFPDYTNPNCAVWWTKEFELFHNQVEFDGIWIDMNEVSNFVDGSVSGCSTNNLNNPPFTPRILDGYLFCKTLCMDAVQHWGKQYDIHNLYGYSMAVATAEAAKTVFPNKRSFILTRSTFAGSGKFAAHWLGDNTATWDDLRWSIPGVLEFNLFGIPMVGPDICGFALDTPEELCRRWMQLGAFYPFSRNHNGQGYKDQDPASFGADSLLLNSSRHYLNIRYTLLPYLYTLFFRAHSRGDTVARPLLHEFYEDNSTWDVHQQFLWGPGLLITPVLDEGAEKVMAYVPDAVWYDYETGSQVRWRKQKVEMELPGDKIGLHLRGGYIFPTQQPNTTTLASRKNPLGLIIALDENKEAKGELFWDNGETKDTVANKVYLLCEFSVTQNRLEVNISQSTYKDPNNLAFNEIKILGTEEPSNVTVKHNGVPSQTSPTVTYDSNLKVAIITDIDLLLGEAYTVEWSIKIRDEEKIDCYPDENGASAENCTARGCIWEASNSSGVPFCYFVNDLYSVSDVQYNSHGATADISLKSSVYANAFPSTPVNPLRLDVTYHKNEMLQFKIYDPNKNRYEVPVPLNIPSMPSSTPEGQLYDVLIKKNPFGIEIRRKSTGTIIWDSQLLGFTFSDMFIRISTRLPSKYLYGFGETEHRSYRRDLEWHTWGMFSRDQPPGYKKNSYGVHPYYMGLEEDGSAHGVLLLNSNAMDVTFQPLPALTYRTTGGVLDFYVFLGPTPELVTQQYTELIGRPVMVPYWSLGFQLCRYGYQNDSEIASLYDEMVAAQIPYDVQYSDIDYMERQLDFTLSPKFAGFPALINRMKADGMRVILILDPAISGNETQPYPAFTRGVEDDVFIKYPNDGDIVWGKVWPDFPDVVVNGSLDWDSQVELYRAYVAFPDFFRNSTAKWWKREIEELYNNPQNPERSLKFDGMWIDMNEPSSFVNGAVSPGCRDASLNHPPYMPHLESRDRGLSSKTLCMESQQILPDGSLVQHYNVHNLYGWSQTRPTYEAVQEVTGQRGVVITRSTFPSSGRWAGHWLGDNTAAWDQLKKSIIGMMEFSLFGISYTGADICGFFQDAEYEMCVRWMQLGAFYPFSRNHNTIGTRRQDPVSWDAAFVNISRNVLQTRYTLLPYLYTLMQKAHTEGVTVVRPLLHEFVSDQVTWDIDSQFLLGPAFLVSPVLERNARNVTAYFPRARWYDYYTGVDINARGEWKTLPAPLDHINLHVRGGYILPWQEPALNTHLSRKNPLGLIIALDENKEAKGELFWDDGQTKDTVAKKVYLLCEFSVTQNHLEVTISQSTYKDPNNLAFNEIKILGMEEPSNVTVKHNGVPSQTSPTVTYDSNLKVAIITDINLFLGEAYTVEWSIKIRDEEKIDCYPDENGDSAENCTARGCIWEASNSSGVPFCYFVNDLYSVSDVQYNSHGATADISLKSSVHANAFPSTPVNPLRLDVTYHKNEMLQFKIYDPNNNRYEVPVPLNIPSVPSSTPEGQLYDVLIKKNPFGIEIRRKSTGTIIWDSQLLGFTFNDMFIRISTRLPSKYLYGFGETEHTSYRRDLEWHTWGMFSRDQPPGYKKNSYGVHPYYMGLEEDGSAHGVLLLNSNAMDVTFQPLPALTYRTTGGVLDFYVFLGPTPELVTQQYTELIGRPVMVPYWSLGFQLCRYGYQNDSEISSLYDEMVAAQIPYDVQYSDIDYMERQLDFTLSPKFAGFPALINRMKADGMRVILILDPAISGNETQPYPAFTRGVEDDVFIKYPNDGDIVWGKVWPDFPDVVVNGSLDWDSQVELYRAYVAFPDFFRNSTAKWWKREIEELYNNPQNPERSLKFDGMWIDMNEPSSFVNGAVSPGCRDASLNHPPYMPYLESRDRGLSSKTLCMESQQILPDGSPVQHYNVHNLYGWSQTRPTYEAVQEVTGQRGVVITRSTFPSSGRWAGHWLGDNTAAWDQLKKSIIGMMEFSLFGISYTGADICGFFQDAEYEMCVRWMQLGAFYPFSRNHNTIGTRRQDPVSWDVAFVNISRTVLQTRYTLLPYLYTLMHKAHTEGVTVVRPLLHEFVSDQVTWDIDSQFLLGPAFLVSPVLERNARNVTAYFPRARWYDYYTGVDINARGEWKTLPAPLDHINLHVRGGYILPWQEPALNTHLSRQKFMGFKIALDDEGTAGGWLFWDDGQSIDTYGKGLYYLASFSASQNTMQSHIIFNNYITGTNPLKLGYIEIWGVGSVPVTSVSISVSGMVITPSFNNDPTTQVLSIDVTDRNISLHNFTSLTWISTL

CO[C@@H]([C@H](O)[C@@H](O)CO)[C@H](O)C[S@+]1C[C@@H](O)[C@H](O)[C@H]1CO
Ki: 0.5 µM
